Consider 9 molecules from US7998971B2, “Combinations containing a 4-acylaminopyridine derivative” (BrainCells Inc., priority 2006, dated 2011).

The structures appear in SMILES notation. Read-outs that look alike come from different tables or passages of the source.

The test system of experiment [1] is human neural stem cells (hNSCs). In words: Neuronal differentiation of human neural stem cells (TUJ-1 staining, concentration response curves). The class given is cell-based. The settings on record: for EC50: Homo sapiens, Neural stem cell; for maximum neuronal differentiation percent of positive control: MKC-231 CRC 0.01-31.6 uM, azakenpaullone CRC 0.001-3.2 uM. The text has this: Mitogen-free test media with a positive control for neuronal differentiation was used along with basal media without growth factors as a negative control. […]

A further experiment relates to mGlu7 and mGlu8. To be noted: above 1 μM; cited from earlier work.
Experiment [2] has as its target acetylcholinesterase (AChE) (Homo sapiens, UniProt P22303). To be noted: cited from earlier work.
[3] abbreviates: agent alone, hNSCs, percentage of neuronal positive control, basal media subtracted, read-out: EC50 of neuronal differentiation, agent used alone.

acetylcholinesterase (AChE), sequence (P22303 32-614, species assumed): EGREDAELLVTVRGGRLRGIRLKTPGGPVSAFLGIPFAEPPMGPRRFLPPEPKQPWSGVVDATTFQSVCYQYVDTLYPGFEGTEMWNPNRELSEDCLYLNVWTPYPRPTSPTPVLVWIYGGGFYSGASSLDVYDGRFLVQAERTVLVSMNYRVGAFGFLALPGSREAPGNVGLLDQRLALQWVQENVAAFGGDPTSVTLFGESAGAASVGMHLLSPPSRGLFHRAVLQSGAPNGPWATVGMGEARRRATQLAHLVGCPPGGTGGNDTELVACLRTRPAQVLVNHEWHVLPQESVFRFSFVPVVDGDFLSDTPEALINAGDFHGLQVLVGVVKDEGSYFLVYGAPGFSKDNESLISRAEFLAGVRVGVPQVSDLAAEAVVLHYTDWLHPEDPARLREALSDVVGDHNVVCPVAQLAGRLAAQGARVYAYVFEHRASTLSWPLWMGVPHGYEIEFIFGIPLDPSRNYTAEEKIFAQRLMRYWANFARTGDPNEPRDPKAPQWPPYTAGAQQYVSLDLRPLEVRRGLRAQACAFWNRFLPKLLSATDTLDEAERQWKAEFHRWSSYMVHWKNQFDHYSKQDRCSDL

For `O=C1CC[C@@]2(O)[C@H]3Cc4ccc(O)c5c4[C@@]2(CCN3CC2CC2)[C@H]1O5` [naltrexone], in experiment [1] (setting [3]), the EC50 was 4.5 µM. For `Cc1onc(O)c1CC(N)C(=O)O` (stereo not drawn) [AMPA, α-amino-3-hydroxy-5-methylisoxazole-4-propionic acid], the “effect on differentiation at 0.316 μM” value in experiment [1] (AMPA alone at 0.316 μM) was “no effect”. The EC50 in experiment [1] (read-out: EC50 of neuronal differentiation, agent used alone) is roughly 31.6 µM. Consider `CN(CCOc1ccc(CC2SC(=O)NC2=O)cc1)c1ccccn1` (stereo not drawn) [rosiglitazone], for which, in experiment [1] (setting [3]), the half-maximal effective concentration (EC50) came out at 3.6 µM. For `O=C1Cc2c([nH]c3ccc(Br)cc23)-c2ncccc2N1` [azakenpaullone], in experiment [1] (hNSCs), the “maximum neuronal differentiation percent of positive control” value is recorded as 120%. Take `CC(C)c1c(C(=O)Nc2ccccc2)c(-c2ccccc2)c(-c2ccc(F)cc2)n1CC[C@@H](O)C[C@@H](O)CC(=O)O` [atorvastatin]: in experiment [1] (setting [3]), the EC50 stood at 0.003 µM. In the case of `N[C@](CC1c2ccccc2Oc2ccccc21)(C(=O)O)[C@H]1C[C@@H]1C(=O)O` [LY341495, (2S)-2-amino-2-(1S,2S-2-carboxycycloprop-1-yl)-3-(xanth-9-yl) propanoic acid], the “activity against mGlu7 and mGlu8 at higher concentrations” value with mGlu7 and mGlu8 is “antagonist activity”. As for `C[C@]12CC[C@@H]3c4ccc(O)cc4CC[C@H]3[C@@H]1CC[C@@H]2O` [estradiol], the half-maximal effective concentration (EC50) in experiment [1] (agent alone, hNSCs, extrapolated, read-out: EC50 of neuronal differentiation, agent used alone, estimated by extrapolation of the observed data) is 4.4 µM. In the case of `Cc1oc2nc3c(c(NC(=O)CN4CCCC4=O)c2c1C)CCCC3` [MKC-231, 2-(2-oxopyrrolidin-1-yl)-N-(2,3-dimethyl-5,6,7,8-tetrahydrofuro[2,3-b]-quinolin-4-yl)acetoamide], in experiment [1] (setting [3]), the half-maximal effective concentration (EC50) was determined as 8.6 µM. Besides, in experiment [1] (hNSCs), the “maximum neuronal differentiation percent of positive control” value was determined as 53%. Besides, in experiment [2], the AChE inhibitory activity entry was “does not have such inhibitory activity”. With `Clc1ccc2c(c1)N=C(N1CCNCC1)c1ccccc1N2` [N-desmethylclozapine], the neurogenic activity result in experiment [1] (assays as disclosed herein) is reported as “highly neurogenic”.
